# Test system: cardiac cell potassium channels
# Test: potassium ion-selective optical ion sensor fluorescence assay of electrically paced cardiac myocyte cells (hERG screening)
# Type: cell-based
# Details: 2.0 μM Haloperidol; myocyte cells paced at 1.0 Hz; FIG. 10D in comparison to FIG. 10B
# Description: In one particular example, a cell assay system built in accordance with principles of the invention can be used to conduct hERG screening assays. The hERG gene regulates the activity of potassium ion channels in cardiac myocyte cells. In a functioning heart, electrical voltages are generated by modified myocytes in the sinoatrial and atrioventricular nodes (pacemaking nodes). Such voltages are propagated through the heart by the action of various voltage-gated ion channels that alter the voltage gradients across cardiac cell membranes by exchanging sodium, calcium, and potassium ions across the cell membrane. Various agents are known to interfere with the hERG gene, or otherwise block potassium channel operation, resulting in arrhythmia and potentially heart failure. […]
# To test for potassium channel interference, cardiac myocyte cells are provided in a monolayer adhered to a biological sample holder. […] As potassium ions are passed into and out of the myocytes by potassium channels, the fluorescence of the potassium selective optical ion sensor varies in a detectable fashion.
# FIGS. 10A and 10B are graphs charting the intensity of potassium ion-selective optical ion sensor fluorescence monitoring the activity of myocyte cells in a biological sample holder. […] The graph of FIG. 10A includes normalized raw fluorescence measurements, both observed and filtered. […]
smiles,measurement,value
O=C(CCCN1CCC(O)(c2ccc(Cl)cc2)CC1)c1ccc(F)cc1 [Haloperidol],reduction of intensity of fluorescence oscillations at 1.0 Hz (change of extracellular potassium concentration per beat),30%
